{
  "source": "patent US8158389B2",
  "about": "“Products and methods for in vivo secretion of monatin” (priority 2005, dated 2012)",
  "key": {"[1]": {"test_system": "C. glutamicum ATCC 13032 transformed with aspCProA pEKEX-2", "experiment": "Monatin efflux with biotin and ampicillin treatments", "type": "cell-based, Corynebacterium glutamicum", "protocol": "C. glutamicum ATCC 13032 strains transformed with aspCProA pEKEX-2 were grown overnight in LB medium supplemented with 50 μg/mL kanamycin incubated at 30° C. and shaking at 250 rpm. […] Microbiol 151:342-347, (1989). […] The pH was adjusted to 7.0.\nAdditions of 1.0 g L-tryptophan and 5 g/L sodium pyruvate and ampicillin (either 0 or 10 μg/ml) were made 3 hours following induction."}, "[2]": {"test_system": "C. glutamicum 13032::aspC/proA/pEKEX2-2", "experiment": "Monatin excretion using ethambutol", "type": "cell-based, Corynebacterium glutamicum", "protocol": "Microbiol 151:342-347, (1989). […] The pH was adjusted to 7.0.\nConditions for the treatments included 30° C. throughout the experiment and 250 rpm agitation. Ethambutol (10 mg/L) was added either prior to inoculation of shake flasks or at the first feeding time when tryptophan and pyruvate were added. […] Additions of 1 g L-tryptophan, 10 g/L sodium pyruvate, 0.04 mM pyridoxal-5′-phosphate (“PLP”), were made 3 hours following induction."}, "[3]": {"test_system": "E. coli BL21 DE3 aspC/proA on pET30", "experiment": "Monatin excretion with glucose or malate as carbon source", "type": "cell-based, Escherichia coli", "protocol": "For inoculum, E. coli BL21 DE3 aspC/proA on pET30 was grown overnight in LB medium with 50 μg/mL kanamycin at 37° C. and 250 rpm. For the experimental treatments, Trp-1 medium, as described in Example 6 (Zeman, et al. Folia Microbiol. 35:200-204, (1990)), and 50 μg/mL kanamycin was used. Malate and glucose were 4 g/L initially for their respective treatments. For treatment flasks, 2.2 v/v % of inoculum was added to 50 mL medium volume in 250 mL baffled shake flasks. For glucose treatments, induction of the monatin operon was initiated at 0.8 OD600 nm. For malate treatments, induction was at 0.25 OD. At induction, 0.5 mM IPTG, 0.5 mM pyridoxine hydrochloride, and 0.2 mL of Balch's vitamins (Balch, W. E., et al., “Methanogens: reevaluation of a unique biological group,” Microbiol. Rev. 43:260-296 (1979)) were added. Temperature was reduced to 30° C. at induction."}, "[4]": {"conditions": "Ampicillin 10 μg/mL, Biotin 1 μg/L"}, "[5]": {"conditions": "Ampicillin 10 μg/mL, Biotin 200 μg/L"}, "[6]": {"conditions": "Biotin 200 μg/L, Ampicillin 0 μg/mL"}, "[7]": {"conditions": "ethambutol 10 mg/L with 0.2% Tween 20 and 10 μg/ml ampicillin, n = 2"}, "[8]": {"conditions": "ethambutol 10 mg/L, another 10 g/L sodium pyruvate at 24 hours, n = 2"}},
  "note": "“And” between values parts separate entries of the source, which are not always exact repeats. Equal values may be shown once. Marks after values point to notes of the source that are not given here.",
  "data": [
    {"compound": "CC1(C)S[C@@H]2[C@H](NC(=O)[C@H](N)c3ccccc3)C(=O)N2[C@H]1C(=O)O", "note": "[Ampicillin, ampicillin]", "values": [
      {"measurement": "Monatin/dry cell weight, 24 hours", "setting": "[1]; [4]", "result": 16.2, "unit": "mg/g"},
      {"measurement": "Monatin/dry cell weight, 48 hours", "setting": "[1]; [4]", "result": 13.5, "unit": "mg/g"},
      {"measurement": "Monatin/dry cell weight, 24 hours", "setting": "[1]; [5]", "result": 12.1, "unit": "mg/g"},
      {"measurement": "Monatin/dry cell weight, 48 hours", "setting": "[1]; [5]", "result": 9.3, "unit": "mg/g"}
    ]},
    {"compound": "O=C(O)CCCC[C@@H]1SC[C@@H]2NC(=O)N[C@@H]21", "note": "[Biotin, biotin]", "values": [
      {"measurement": "Monatin/dry cell weight, 48 hours", "setting": "[1]; Biotin 1 μg/L, Ampicillin 0 μg/mL", "result": 4.5, "unit": "mg/g"},
      {"measurement": "Monatin/dry cell weight, 24 hours", "setting": "[1]; Biotin 1 μg/L, Ampicillin 0 μg/mL, n = 1", "result": "1.9* mg/g"},
      {"measurement": "Monatin/dry cell weight, 24 hours", "setting": "[1]; [6]", "result": 0.9, "unit": "mg/g"},
      {"measurement": "Monatin/dry cell weight, 48 hours", "setting": "[1]; [6]", "result": 1.7, "unit": "mg/g"}
    ]},
    {"compound": "CC[C@@H](CO)NCCN[C@@H](CC)CO", "note": "[ethambutol]", "values": [
      {"measurement": "greater monatin excreted per dry cell weight", "setting": "[2]; Tween/ampicillin treatment with 10 mg/L ethambutol vs same treatment without ethambutol, 48 hours", "result": 12, "unit": "fold"},
      {"measurement": "Monatin/dry cell weight, 24 hours", "setting": "[2]; [7]", "result": 6.94, "unit": "mg/g"},
      {"measurement": "Monatin/dry cell weight, 30 hours", "setting": "[2]; [7]", "result": 8.80, "unit": "mg/g"},
      {"measurement": "Monatin/dry cell weight, 48 hours", "setting": "[2]; [7]", "result": 9.14, "unit": "mg/g"},
      {"measurement": "Monatin/dry cell weight, 24 hours", "setting": "[2]; [8]", "result": 1.04, "unit": "mg/g"},
      {"measurement": "Monatin/dry cell weight, 31 hours", "setting": "[2]; [8]", "result": 1.53, "unit": "mg/g"},
      {"measurement": "Monatin/dry cell weight, 48 hours", "setting": "[2]; [8]", "result": 2.19, "unit": "mg/g"},
      {"measurement": "Monatin/dry cell weight, 24 hours", "setting": "[2]; ethambutol 10 mg/L, n = 2", "result": 1.16, "unit": "mg/g"},
      {"measurement": "Monatin/dry cell weight, 31 hours", "setting": "[2]; ethambutol 10 mg/L, n = 2", "result": 1.15, "unit": "mg/g"},
      {"measurement": "Monatin/dry cell weight, 48 hours", "setting": "[2]; ethambutol 10 mg/L, n = 2", "result": 1.06, "unit": "mg/g"}
    ]},
    {"compound": "O=C(O)CC(O)C(=O)O", "note": "(stereo not drawn) [malate]", "values": [
      {"measurement": "Monatin/dcw, 24 hour average", "setting": "[3]; carbon source 4 g/L initially, 24 hours post induction", "result": 7.72, "unit": "mg/g"},
      {"measurement": "Monatin/dcw, 24 hours", "setting": "[3]; carbon source 4 g/L initially, 24 hours post induction, single flasks", "result": "7.19 mg/g and 8.25 mg/g"},
      {"measurement": "higher monatin transported per unit biomass", "setting": "[3]; malate as primary carbon source vs glucose", "result": 23, "unit": "%"}
    ]}
  ]
}
